In patent US8076487B2, “Pyridone derivative and herbicide” (Kumiai Chemical Industry Co., Ltd., priority 2006, dated 2011):

How the values were obtained:
Assay type in all cases: in vivo
[1] = test system: Japanese bulrush (Scirpus juncoides Roxb.); assay: Test Example 1: herbicidal effect by soil application to paddy field; conditions: paddy field soil application; active ingredient 1,000 g per 1 hectare; wettable powder added dropwise to water surface the day after sowing; examined on the 21st day after application
How it was run: (§1)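 Plants were sown in flooded (3 cm) paddy soil and evaluated for herbicidal effect 21 days after soil application in a greenhouse.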

[2] = test system: early watergrass (Echinochloa oryzicola Vasing); assay: as above; conditions: paddy field soil application; active ingredient 1,000 g per 1 hectare; wettable powder added dropwise to water surface the day after sowing; examined on the 21st day after application
How it was run: as §1

[3] = test system: heartshape false pickerelweed (Monochoria vaginalis (Burm.f.) C.Presl); assay: as above; conditions: paddy field soil application; active ingredient 1,000 g per 1 hectare; wettable powder added dropwise to water surface the day after sowing; examined on the 21st day after application
How it was run: as §1

[4] = test system: slender amaranth (Amaranthus viridis L.); assay: Test Example 2: herbicidal effect by soil application to upland field; conditions: soil surface spray, upland field soil, 1,000 g active ingredient per hectare, 21st day after application
How it was run: (§2)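 Seeds were sown in field soil, covered, and the soil surface sprayed with a water-diluted wettable powder at 1,000 g active ingredient per hectare in 1,000 L/ha. Plants grew in a greenhouse, and herbicidal effect was rated against a standard scale 21 days after application.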

[5] = test system: velvetleaf (Abutilon theophrasti medicus); assay: as above; conditions: soil surface spray, upland field soil, 1,000 g active ingredient per hectare, 21st day after application
How it was run: as §2

[6] = test system: green foxtail (Setaria viridis (L.) P. Beauv.); assay: as above; conditions: soil surface spray, upland field soil, 1,000 g active ingredient per hectare, 21st day after application
How it was run: as §2

[7] = test system: barnyardgrass (Echinochloa crus-galli (L.) P. Beauv. var. crus-galli); assay: as above; conditions: soil surface spray, upland field soil, 1,000 g active ingredient per hectare, 21st day after application
How it was run: as §2

[8] = test system: slender amaranth (Amaranthus viridis L.); assay: Test Example 3: herbicidal effect by application to upland field (foliage treatment); conditions: foliage treatment, 1,000 g active ingredient per 1 hectare, 14th day after application, greenhouse
How it was run: (§3)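 Greenhouse-grown plants, two weeks old in field soil, were treated by spraying their foliage with a water dilution of wettable powder. Rate: 1,000 g active ingredient in a 1,000 L/ha equivalent volume. Assessment followed at 14 days.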

[9] = test system: velvetleaf (Abutilon theophrasti medicus); assay: as above; conditions: foliage treatment, 1,000 g active ingredient per 1 hectare, 14th day after application, greenhouse
How it was run: as §3

[10] = test system: green foxtail (Setaria viridis (L.) P. Beauv.); assay: as above; conditions: foliage treatment, 1,000 g active ingredient per 1 hectare, 14th day after application, greenhouse
How it was run: as §3

[11] = test system: barnyardgrass (Echinochloa crus-galli (L.) P. Beauv. var. crus-galli); assay: as above; conditions: foliage treatment, 1,000 g active ingredient per 1 hectare, 14th day after application, greenhouse
How it was run: as §3

SMILES	herbicidal effect, Scirpus juncoides Roxb. [1]	herbicidal effect, Echinochloa oryzicola Vasing [2]	herbicidal effect, Monochoria vaginalis (Burm. f.) C. Presl [3]	herbicidal effect (index), Slender Amaranth [4]	herbicidal effect (index), Velvetleaf [5]	herbicidal effect (index), Green Foxtail [6]	herbicidal effect (index), Barnyardgrass [7]	herbicidal effect, Slender Amaranth [8]	herbicidal effect, Velvetleaf [9]	herbicidal effect, Green Foxtail [10]	herbicidal effect, Barnyardgrass [11]
Cn1ncc(C(=O)c2ccc(C(F)(F)F)n(-c3cc(F)ccc3F)c2=O)c1O [IV-83]	5 (90% or more of herbicidal effect and crop phytotoxicity)	5 (90% or more of herbicidal effect and crop phytotoxicity)	5 (90% or more of herbicidal effect and crop phytotoxicity)	5 (90% or more of herbicidal effect and crop phytotoxicity)	5 (90% or more of herbicidal effect and crop phytotoxicity)	5 (90% or more of herbicidal effect and crop phytotoxicity)	5 (90% or more of herbicidal effect and crop phytotoxicity)	5 (90% or more of herbicidal effect and crop phytotoxicity)	5 (90% or more of herbicidal effect and crop phytotoxicity)	5 (90% or more of herbicidal effect and crop phytotoxicity)	5 (90% or more of herbicidal effect and crop phytotoxicity)
CCCS(=O)(=O)Oc1c(C(=O)c2ccc(C(F)(F)F)n(-c3cc(F)ccc3F)c2=O)cnn1C [IV-84]	5 (90% or more of herbicidal effect and crop phytotoxicity)	5 (90% or more of herbicidal effect and crop phytotoxicity)	5 (90% or more of herbicidal effect and crop phytotoxicity)	5 (90% or more of herbicidal effect and crop phytotoxicity)	5 (90% or more of herbicidal effect and crop phytotoxicity)	5 (90% or more of herbicidal effect and crop phytotoxicity)	5 (90% or more of herbicidal effect and crop phytotoxicity)	4 (70 to less than 90% of herbicidal effect and crop phytotoxicity)	5 (90% or more of herbicidal effect and crop phytotoxicity)	3 (50 to less than 70% of herbicidal effect and crop phytotoxicity)	4 (70 to less than 90% of herbicidal effect and crop phytotoxicity)
Cn1ncc(C(=O)c2ccc(C(F)(F)F)n(-c3ccc(F)c(F)c3)c2=O)c1O [IV-85]	5 (90% or more of herbicidal effect and crop phytotoxicity)	5 (90% or more of herbicidal effect and crop phytotoxicity)	5 (90% or more of herbicidal effect and crop phytotoxicity)	5 (90% or more of herbicidal effect and crop phytotoxicity)	5 (90% or more of herbicidal effect and crop phytotoxicity)	5 (90% or more of herbicidal effect and crop phytotoxicity)	5 (90% or more of herbicidal effect and crop phytotoxicity)	5 (90% or more of herbicidal effect and crop phytotoxicity)	5 (90% or more of herbicidal effect and crop phytotoxicity)	5 (90% or more of herbicidal effect and crop phytotoxicity)	5 (90% or more of herbicidal effect and crop phytotoxicity)
Cc1nn(C)c(O)c1C(=O)c1ccc(C(F)(F)F)n(-c2ccc(F)c(F)c2)c1=O [IV-86]	4 (70 to less than 90% of herbicidal effect and crop phytotoxicity)	5 (90% or more of herbicidal effect and crop phytotoxicity)	5 (90% or more of herbicidal effect and crop phytotoxicity)	5 (90% or more of herbicidal effect and crop phytotoxicity)	5 (90% or more of herbicidal effect and crop phytotoxicity)	5 (90% or more of herbicidal effect and crop phytotoxicity)	5 (90% or more of herbicidal effect and crop phytotoxicity)	5 (90% or more of herbicidal effect and crop phytotoxicity)	5 (90% or more of herbicidal effect and crop phytotoxicity)	4 (70 to less than 90% of herbicidal effect and crop phytotoxicity)	5 (90% or more of herbicidal effect and crop phytotoxicity)
COc1cc(-n2c(C(F)(F)F)ccc(C(=O)c3cnn(C)c3O)c2=O)ccc1Cl [IV-90]	5 (90% or more of herbicidal effect and crop phytotoxicity)	5 (90% or more of herbicidal effect and crop phytotoxicity)	5 (90% or more of herbicidal effect and crop phytotoxicity)	5 (90% or more of herbicidal effect and crop phytotoxicity)	5 (90% or more of herbicidal effect and crop phytotoxicity)	3 (50 to less than 70% of herbicidal effect and crop phytotoxicity)	5 (90% or more of herbicidal effect and crop phytotoxicity)	5 (90% or more of herbicidal effect and crop phytotoxicity)	5 (90% or more of herbicidal effect and crop phytotoxicity)	5 (90% or more of herbicidal effect and crop phytotoxicity)	5 (90% or more of herbicidal effect and crop phytotoxicity)
COc1ccc(-n2c(C(F)(F)F)ccc(C(=O)c3cnn(C)c3O)c2=O)cc1F [IV-92]	5 (90% or more of herbicidal effect and crop phytotoxicity)	5 (90% or more of herbicidal effect and crop phytotoxicity)	5 (90% or more of herbicidal effect and crop phytotoxicity)	5 (90% or more of herbicidal effect and crop phytotoxicity)	5 (90% or more of herbicidal effect and crop phytotoxicity)	5 (90% or more of herbicidal effect and crop phytotoxicity)	5 (90% or more of herbicidal effect and crop phytotoxicity)	5 (90% or more of herbicidal effect and crop phytotoxicity)	4 (70 to less than 90% of herbicidal effect and crop phytotoxicity)	4 (70 to less than 90% of herbicidal effect and crop phytotoxicity)	4 (70 to less than 90% of herbicidal effect and crop phytotoxicity)
CCCS(=O)(=O)Oc1c(C(=O)c2ccc(C(F)(F)F)n(-c3ccc(OC)c(F)c3)c2=O)cnn1C [IV-93]	5 (90% or more of herbicidal effect and crop phytotoxicity)	5 (90% or more of herbicidal effect and crop phytotoxicity)	5 (90% or more of herbicidal effect and crop phytotoxicity)	5 (90% or more of herbicidal effect and crop phytotoxicity)	5 (90% or more of herbicidal effect and crop phytotoxicity)	4 (70 to less than 90% of herbicidal effect and crop phytotoxicity)	5 (90% or more of herbicidal effect and crop phytotoxicity)	5 (90% or more of herbicidal effect and crop phytotoxicity)	4 (70 to less than 90% of herbicidal effect and crop phytotoxicity)	4 (70 to less than 90% of herbicidal effect and crop phytotoxicity)	4 (70 to less than 90% of herbicidal effect and crop phytotoxicity)
COCc1cc(-n2c(C(F)(F)F)ccc(C(=O)c3cnn(C)c3O)c2=O)ccc1F [IV-95]	5 (90% or more of herbicidal effect and crop phytotoxicity)	5 (90% or more of herbicidal effect and crop phytotoxicity)	5 (90% or more of herbicidal effect and crop phytotoxicity)	5 (90% or more of herbicidal effect and crop phytotoxicity)	5 (90% or more of herbicidal effect and crop phytotoxicity)	5 (90% or more of herbicidal effect and crop phytotoxicity)	5 (90% or more of herbicidal effect and crop phytotoxicity)	5 (90% or more of herbicidal effect and crop phytotoxicity)	5 (90% or more of herbicidal effect and crop phytotoxicity)	5 (90% or more of herbicidal effect and crop phytotoxicity)	5 (90% or more of herbicidal effect and crop phytotoxicity)
